According to patent US6878690B2, “Compounds and methods” (PharmAxis Pty Ltd., priority 2000, dated 2005):

Tests used:
[1] = test system: passively transferred adjuvant arthritis; experiment: Passively transferred adjuvant induced arthritis; assay type: in vivo, DA rats; conditions: 37 mg/kg/day, end of the two week treatment period, FIG. 2
Procedure: Male DA rats 8 to 10 week old were immunised with three 100 microliter injections of Complete Freund's Adjuvant (CFA) intradermally at the base of the tail. The CFA was prepared by mixing 8 mg/ml of Mycobacterium butyricum (Difco Laboratories, USA) that had been ground to a fine powder using a mortar and pestle, in 85% light mineral oil (Sigma, USA) and 15% mannide monooleate (Sigma) and emulsifying this suspension, one part in one part saline. Thus, the final emulsion contained 4 mg/ml of M. butyricum.
Ten days after immunisation the rats were euthanased and the spleens removed aseptically. A single cell suspension was prepared in the usual manner in mixed lymphocyte culture medium (MLC) (Dulbecco's Modified Eagle's Medium (DMEM) plus glucose, folic acid, L-asparagine, sodium pyruvate, HEPES, 2-mercapto ethanol, penicillin, streptomycin, neomycin and 10% fetal calf serum) by pushing the spleens through a stainless steel sieve. The cells were placed in culture in MLC medium with 2 micrograms/ml concanavalin A added such that the lymphocyte concentration was 2 million cells per milliliter. These cells were cultured aseptically at 37° C. in an atmosphere containing 5% carbon dioxide for 72 hours.
Groups of 4 or 5 DA rats, 6 to 8 weeks of age were anesthetised with diethyl ether and implanted subcutaneously on the flank with Alzet 2002 (2 week delivery) or 2001 (1 week delivery) mini-osmotic pumps (Alza Corp., Palo Alto Calif., USA). One treatment group received phosphoric acid mono-(6-propyl-3,4,5-trihydroxy-tetrahydro-pyran-2-ylmethyl) ester in the one week delivery Alzet 2001 mini-osmotic pumps. The drug was delivered at a dose of 25 mg/kg/day. The control group for this experiment received identical mini-osmotic pumps containing normal saline. In a second experiment another group of DA rats received ethyl (3,4,5-trihydroxy-6-phosphonooxymethyl-tetrahydro-pyran-2-yl)-acetic acid ester in the two week delivery Alzet 2002 mini-osmotic pumps. This drug was delivered at a dose of 37 mg/kg/day. Control animals for this group received saline delivered in identical mini-osmotic pumps. The pumps in each case were implanted subcutaneously on the flank of each animal. […]
After 5 to 8 days, a characteristic thickening and cutaneous hyperemia of the distal joints of the hind legs became clinically apparent in the saline control animals. Disease severity was evaluated and graded in each group by taking daily measurements of the mediolateral widths of both ankle joints. The data were expressed as the mean of the change (compared with width prior to cell injection) in mediolateral ankle width expressed in millimeters (±standard error of the mean).

[2] = test system: myelin basic protein (MBP)-specific T lymphocyte cell lines; experiment: Inhibition of T-lymphocyte migration across rat brain endothelial cell layer (Transwell, 51Cr-labelled cells); assay type: cell-based, Lewis rats; conditions: test substance 10 mmolar in upper well; 6 hours; in comparison with the negative control (glucose 6-phosphate); triplicate
Excerpt: Vascular endothelial cells were isolated from rat brain capillaries taken from 6 to 8 week old Lewis rats according to the method of Risau et al. (Risau, W., Engelhardt, B., and Wekerle, H., (1990). Journal of Cell Biology, vol 110, p 1757-1766, which is incorporated herein by reference). Colonies of endothelial cells were purified from astroglial cells and pericytes by a Thy1.1-mediated complement lysis also after the method of Risau et al. (vide supra). The endothelial colonies, according to methods known in the art, were grown in Dulbecco's minimum essential medium (DMEM) high glucose supplemented, with 20% fetal calf serum (FCS), glutamine, pyruvate, nonessential amino acids, 4-(2-hydroxyethyl)-1-piperazine ethane sulfonic acid buffer (HEPES), kanamycin, amphotericin, heparin (all from Gibco) and 150 micrograms/ml endothelial growth supplement (Collaborative Biomedical Products). Upon reaching confluence, the endothelial cultures were washed with 0.2% EDTA in phosphate buffered saline (PBS), trypsinized (Trypsin-EDTA, 0.1% final concentration, Gibco), washed and again incubated with anti-Thy1.1 antibody for 40 minutes, washed and incubated with complement sufficient to lyse all Thy1.1+ cells (Behringwerke, AG, Marburg, Germany) at room temperature, washed and plated on matrigel-coated 6.5 mm Transwells, […] (Corning Costar Corporation, Cambridge, Mass.). The endothelial cell characteristics and confluence of the monolayer were checked by measuring the electrical resistance (World Precision Instruments, New Haven, U.S.A., model EVOM-G) and by staining with FITC-labeled phalloidin (Sigma). In order to study the effect of the agents of the present invention on T lymphocyte migration, myelin basic protein (MBP)-specific T lymphocyte cell lines were generated according to the method of Ben-Nun et al. (Ben-Nun, A., Wekerle, H. and Cohen, I. R., 1981). The rapid isolation of clonable antigen-specific T lymphocyte lines capable of mediating autoimmune encephalomyelitis. European Journal of Immunology. 1981, 11(3), 195-199; incorporated herein by reference) from the lymph nodes of Lewis rats that had been immunised with MBP in Freund's complete adjuvant. These cells were used for migration studies during the first 4 days of their propagation in IL-2 containing medium, following antigen (MBP) restimulation in the presence of antigen-presenting cells from irradiated spleen cells or thymocytes taken from normal Lewis rats. The antigen-activated T lymphocytes were radio-labelled with sodium chromate (^51Cr, 37 MBq/ml, Amersham, UK) for 30 minutes at 37° C. with occasional agitation, they were then washed three times with the DMEM culture medium and placed into the upper chamber of the Transwells at 5×10^5 cells in 100 microliters of migration medium. Test and control substance were included in the upper wells at final concentrations of 0.1, 1 and 10 mM. Cell migration was monitored by light microscopy in order to gauge progress of the experiment. […] The combined material was transferred into scintillation vials and the radioactivity of each tube determined by counting for 1 minute in a Packard Auto-Gamma 5650 (IL, USA) gamma counter. Each test and the control substance (glucose 6-phosphate) and no treatment were assessed in triplicate. […]

[3] = test system: lymphocyte migration into the spleen; experiment: Inhibition of lymphocyte migration into lymphoid tissue (spleen); assay type: in vivo, Balb/C mice; conditions: intravenous dose of 5 mg of test compound together with labelled lymphocytes; spleens removed 1.5 hours after injection
Excerpt: In the present example, spleens from specific pathogen free 6-8 week old female Balb/C mice [19-21 g] were used to prepare a single cell suspension in the usual manner in mixed lymphocyte culture medium (DMEM plus glucose, folic acid, L-asparagine, sodium bicarbonate, L-glutamine, sodium pyruvate, HEPES, 2-mercaptoethanol, penicillin, streptomycin, neomycin, and 2% fetal calf serum) by pushing through a stainless steel screen. Following cell collection the red blood cells were lysed in the usual manner by treating with a solution of ammonium chloride, EDTA and sodium hydrogen carbonate (pH 7.3) and the preparation strained (Falcon 2350 cell strainer). All cell preparative steps were performed on ice.
In order to deplete the preparation of B lymphocytes, the cells were suspended in purified rat anti-mouse CD45/B220 antibody (RA3-6B2 clone; PharMingen, USA) at a concentration of 4×10^7 cells per ml and incubated on ice for 20 minutes. An equal volume of mixed lymphocyte culture medium (as above) was then added and the cells centrifuged (200× g) and resuspended at a concentration of 1×10^7 cells per ml in BioMag goat ant-rat IgG (H&L) linked to magnetic beads (Bio Mag; Perseptive Diagnostics, Polysciences Inc, USA). Following a 20 minute incubation on ice, with agitation every 5 minutes, the goat anti-rat IgG/antibody complex was removed using magnetic separation (Dynal MPC-6, Dynal, USA). The magnetic separation procedure was repeated 4 times giving a cell population containing approximately 80-90% T lymphocytes (determined by FACS analysis).
The cells were then washed in Hanks media, resuspended in 5 ml of Hanks, and radio-labelled for 30 minutes at 37° C. with sodium chromate solution (^51Cr, 34 MBq/ml, Amersham, UK). The labelled cells were washed in PBS centrifuged (200×g) and a portion were resuspended at a concentration of 3×10^7 cells/ml in either PBS (negative control), or PBS containing the test compound (25 mg/ml), and stored on ice. Balb/C mice in the negative control and treatment groups received a volume of 0.2 ml of the labelled cell preparation by a lateral tail vein injection. Negative control mice received 0.2 ml of PBS together with 6×10^6 51chromium-labelled lymphocytes, and mice from the treated groups received an intravenous dose of 5 mg of the test compound together with 6 million ^51chromium-labelled lymphocytes. […]
Spleens from the recipient mice were removed 1.5 hours after injection and the cell-associated radioactivity (CPM) determined using a gamma counter (Packard Auto-Gamma 5650. IL, USA). Results (inhibition of lymphocyte migration into the spleen) were expressed as a percentage reduction in the CPM of the spleens from treated animals compared with negative controls.

Compound	% inhibition ± SEM [2] [%]	Percent Inhibition (relative to negative controls) of lymphocyte migration into spleens [3] [%]	other results
CCOC(=O)CC1OC(COP(=O)(O)O)C(O)C(O)C1O (stereo not drawn) [Ethyl (3,4,5-trihydroxy-6-phosphonooxymethyl-tetrahydro-pyran-2-yl)-acetic acid ester]	70 ± 4	–	swelling in the affected joints of treated animals ([1]; two week Alzet 2002 pump subcutaneously, controls severe swelling): little swelling; disease status of the treated versus the control animals ([1]; two week Alzet 2002 pump): highly statistically significant difference
O=C(O)CC1OC(COP(=O)(O)O)C(O)C(O)C1O (stereo not drawn) [(3,4,5-trihydroxy-6-phosphonooxymethyl-tetrahydro-pyran-2-yl)-acetic acid]	32 ± 2	–	–
O=P([O-])(O)OCC1OCC(O)C(O)C1O.[Na+] (stereo not drawn) [mono-(3,4,5-trihydroxy-tetrahydro-pyran-2-ylmethyl)phosphoric acid ester mono sodium salt]	–	68.0	–
N#CC1OC(COP(=O)([O-])[O-])C(O)C(O)C1O.[Na+].[Na+] (stereo not drawn) [6-cyano-3,4,5-trihydroxy-tetrahydro-pyran-2-ylmethyl phosphoric acid ester disodium salt]	–	45.0	–
O=C[C@H](O)[C@@H](O)[C@H](O)[C@H](O)COP(=O)(O)O [glucose 6-phosphate, reference compound]	0 ± 5	–	–
CCCCCOC(=O)CC1OC(COP(=O)(O)O)C(O)C(O)C1O (stereo not drawn) [Pentyl (3,4,5-trihydroxy-6-phosphonooxymethyl-tetrahydro-pyran-2-yl)-acetic acid ester]	80 ± 4	–	–
CCOC(=O)CC1OC(COP(=O)([O-])O)C(O)C(O)C1O.[Na+] (stereo not drawn) [Ethyl (3,4,5-trihydroxy-6-phosphonooxymethyl-tetrahydro-pyran-2-yl)-acetic acid ester sodium salt]	–	32.4	–
